Where two headings read alike, the source gives them in different places.
Key:
[1] = test system: Candida albicans SN250; test: Fungicidal bioassay (MIC), Candida albicans; assay type: cell-based
Description: Bacteria, plasmids and growth conditions. Bacterial strains, plasmids and primers used in this study are described in Table 3 and 4. General chemical and molecular biology reagents were purchased from Sigma-Aldrich or New England Biolabs. Phosphinothricin (glufosinate) was purchased from GoldBio (CAS #77182-82-2). Standard bacterial growth media were prepared as described (Current Protocols in Molecular Biology 2019, 125:e81, e82, e83). E. coli strains were typically grown at 37° C.; P. ananatis strains were typically grown at 30° C. Phosphonate induction media (PIM) was prepared as follows: 8.37 g/L MOPS, 0.72 g/L Tricine, 0.58 g/L NaCl, 0.51 g/L NH4Cl, 1.6 g/L KOH, 0.1 g/L MgCl2·6H2O, 0.05 g/L K2SO4, 0.2 g/L K2HIPO4 were dissolved H2O and steam sterilized for 20 min at 121° C. […]
Fungicidal bioassays. […] Minimum Inhibitory Concentration (MIC) was determined visually by finding the concentration of compound at which there was no visual difference between that concentration and the uninoculated media control.

[2] = test system: Pseudomonas aeruginosa PAO1; test: Antibacterial bioassay (MIC), Pseudomonas aeruginosa; assay type: cell-based; settings: CLSI
Description: Antibacterial bioassays. Susceptibility testing for the ESKAPE pathogens and Salmonella enterica LT2 was performed using a Kirby-Bauer method as outlined by the Clinical and Laboratory Standards Institute (CLSI). For rich media bioassays, Mueller Hinton Broth 2 (MH-2, Sigma-Aldrich, 90922) was used for all strains except 1% BHI was supplemented for Enterococcus faecalis ATCC 19433. For minimal media bioassays, glucose-MOPS minimal medium was used. Briefly, overnight bacterial cultures were sub-cultured and inoculated into 5 mL top agar (0.7% agar) for final concentration of 5×10^5 CFU/mL. Then, 20 μL of a compound 2-fold dilution series (200, 100, 50, 25, 12.5, 6.25 μM in water) was spotted on 6 mm diameter blank paper discs (BD BBL™ 231039). Control discs received 20 μL of 50 mg/mL kanamycin. Plates were incubated at 35° C. for 20-24 hours. […] Sensitivity of the IPTG-inducible phosphonate uptake strain WM6242 to pantaphos was tested using a disk diffusion assay. Plates containing growth medium were overlayed with 5 mL of top agar (0.7% agar) inoculated with 100 μL (OD600=0.8) of the phosphonate-specific E. coli indicator strain (WM6242) with or without addition of 1 mM IPTG. WM6242 is engineered with an IPTG-inducible, non-specific phosphonate uptake system (phnCDE). […]

SMILES: O=C(O)/C=C(\C(=O)O)C(O)P(=O)(O)O (stereo not shown) [pantaphos, 2-(hydroxy(phosphono)methyl)maleate]
- MIC ([1]; Candida albicans, SN250, RPMI 1640 medium, 48 hrs growth, CLSI, read-out: MIC, Rich medium): > 125 µM
- effect on the growth of fungi, in words ([1]; rich or minimal media): no effect on the growth
- MIC ([2]; Mueller-Hinton 2 medium, read-out: MIC, Rich medium): > 200 µM
- MIC ([2]; glucose-MOPS minimal medium, read-out: MIC, Minimal medium): > 200 µM
